One assay addresses T1, CRIP1a (Rattus norvegicus, UniProt Q5M7A7).
T1 sequence (Q5M7A7 1-164): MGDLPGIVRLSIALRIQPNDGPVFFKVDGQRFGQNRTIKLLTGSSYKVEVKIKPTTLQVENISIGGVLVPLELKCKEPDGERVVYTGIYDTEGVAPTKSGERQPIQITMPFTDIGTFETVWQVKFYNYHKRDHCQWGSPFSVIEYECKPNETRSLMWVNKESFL
As to the kind of experiment: Fluorescence polarization of fluorescein-labeled peptides binding to CRIP1a. The following applies: 20 nM peptide, CRIP1a 0–250 μM, 30 min, room temperature, 25 mM Hepes pH 7.5, 100 mM NaCl, 5 mM MgCl2, 0.1 mM EDTA, 2 mM TCEP, 10% glycerol, λex 470 nm, λem 530 nm, biological quadruplicates, three separate days.

In assay [1] the target is N-terminally myristoylated 9-mer peptide mimicking the Gαi N terminus (Myr-…-5Flu). As to the kind of experiment: fluorescence polarisation.

No end group written: not given here. 5Flu = C-terminal fluorescein

Take “5Flu-SQGKSSC(Farn)-OMe [Rheb-Farn peptide]”: the “binding to CRIP1a (in words)” value at CRIP1a is reported as “inability to bind”. “Cannabinoid receptor interacting protein 1a (from UniProt Q5M7A7 1-164) (natural protein)” showed a Kd in assay [1] of 21.2 µM.

As to Myr-GTASSLVSPK-5Flu [Myr-NHPH3 peptide], on CRIP1a, the “binding to CRIP1a (in words)” value is given as “unable to readily bind”. Regarding “nonmyristoylated Gα peptide: corresponding nonmyristoylated peptide used as the control (GCTLSAEDK-5Flu)”, in the assay with CRIP1a, the “binding to CRIP1a (in words)” value was “unable to readily bind”.

The values are drawn from publication PMC8446797 (The Journal of Biological Chemistry, 2021).
